{"source": "patent US20210037830A1", "about": "“PHYTOTOXIC MICRONUTRIENT COMBINATIONS FOR SELECTIVE CONTROL OF INVASIVE PLANT SPECIES” (Edaphix, LLC, priority 2019, published 2021)", "key": {"[1]": {"tested_on": "seed geranium (Pelargonium×hortorum)", "settings": "in combination with nitrogen, phosphorus, and potassium; cited from earlier work"}, "humans [2]": {"tested_on": "humans", "settings": "cited from earlier work"}, "French marigold": {"tested_on": "French marigold", "settings": "in vivo; cited from earlier work"}, "chlorophyllitic plants [3]": {"tested_on": "chlorophyllitic plants", "settings": "in vivo; cited from earlier work"}, "chlorophyllitic plants [4]": {"tested_on": "chlorophyllitic plants", "assay": "Photosynthetic disruption by glyphosate", "format": "in vivo", "procedure": "Extensive research has documented that plants are often sensitive to relatively minute concentrations or exposures to unique synthetic compounds or combinations of naturally occurring elements, including micronutrients. For example, glyphosate (aka ROUNDUP®, a synthetic Monsanto/Bayer product) is effective at causing photosynthetic disruption in chlorophyllitic plants at an application rate of as little as 0.75 pounds active ingredient per acre, which equates to only approximately 8 mg/square foot of application, equivalent to approximately 14 ppm application rate. The American Phytopathological Society (APS) reported that micronutrients are generally toxic when present in high amounts, although ‘high concentrations’ are not clearly defined, and little toxicity have been reported at exceptionally low micronutrient concentrations. This occurrence is known as micronutrient toxicity syndrome (MTS). […] In addition, plants can vary considerably from species to species in their susceptibility to nutrient toxicities. For example, Lee and others (1996) reported inducing seed geranium (Pelargonium×hortorum) micronutrient toxicity symptoms by applying nutrient solutions containing 0.5 mg/L B, Cu, or Zn, or as little as 0.25 mg/L Mo, in combination with nitrogen, phosphorus, and potassium. […]"}, "humans [5]": {"tested_on": "humans", "settings": "2005 carcinogen assessment guidelines; cited from earlier work"}}, "note": "Where two headings read alike, the source gives them in different places.", "data": [{"molecule": "[Zn]", "note": "[Zn, zinc]", "values": [{"measurement": "nutrient solution concentration inducing micronutrient toxicity symptoms", "setting": "[1]", "result": 0.5, "unit": "mg/L"}]}, {"molecule": "OB(O)O", "note": "[boric acid]", "values": [{"measurement": "endocrine disruptor classification", "setting": "humans [2]", "result": "neither classified as endocrine disruptors"}]}, {"molecule": "[B]", "note": "[boron]", "values": [{"measurement": "endocrine disruptor classification", "setting": "humans [2]", "result": "neither classified as endocrine disruptors"}, {"measurement": "concentration inducing micro-nutrient toxicity", "setting": "French marigold", "result": 500, "unit": "ng/mL"}]}, {"molecule": "[Cu]", "note": "[copper]", "values": [{"measurement": "concentration inducing micro-nutrient toxicity", "setting": "French marigold", "result": 4000, "unit": "ng/mL"}]}, {"molecule": "O=C(O)CNCP(=O)(O)O", "note": "[glyphosate]", "values": [{"measurement": "application rate effective at causing photosynthetic disruption", "setting": "chlorophyllitic plants [3]", "result": "0.75 pounds active ingredient per acre"}, {"measurement": "application rate effective at causing photosynthetic disruption", "setting": "chlorophyllitic plants [4]; equates to the rate per acre", "result": "approximately 8 mg/square foot"}, {"measurement": "application rate effective at causing photosynthetic disruption", "setting": "chlorophyllitic plants [4]; equivalent application rate", "result": "approximately 14 ppm"}]}, {"molecule": "[Mn+2]", "note": "[manganese]", "values": [{"measurement": "concentration inducing micro-nutrient toxicity", "setting": "French marigold", "result": 1000, "unit": "ng/mL"}]}, {"molecule": "[Mo]", "note": "[molybdenum]", "values": [{"measurement": "concentration inducing micro-nutrient toxicity", "setting": "French marigold", "result": 5000, "unit": "ng/mL"}]}, {"molecule": "borate salts", "values": [{"measurement": "endocrine disruptor classification", "setting": "humans [2]", "result": "neither classified as endocrine disruptors"}, {"measurement": "U.S. EPA carcinogenicity classification", "setting": "humans [5]", "result": "not likely to be carcinogenic to humans"}]}]}
